Reference: patent US20060167057A1, “Compounds for the treatment of CNS and amyloid associated diseases” (priority 2004, published 2006)

How the values were obtained:
[1] = tested on: Apolipoprotein E-Aβ interaction; assay: Apolipoprotein E-Aβ interaction assay; type: binding; conditions: 200 μM test compound, ApoE/Aβ alone = 100%
Protocol: The level of interaction between Apolipoprotein E and Aβ was measured for five inventive compounds to determine whether, under the specific conditions of the present example, the compounds would inhibit the interaction. Nunc-Immuno Maxisorp 96-well microtiter plates were coated with 1 μM HFIP-disaggregated Aβ in 0.1 M NaHCO3 pH 9.6 for 2 hours and 15 minutes at 37°, washed two times in TBS (100 mM Tris-HCl, pH 7.5, 150 mM NaCl), and wells were blocked with 1% fatty-acid free BSA in TBS overnight at 4°.
Test compounds were prepared in either TBS or DMSO at a final concentration of either 2 mM or 10 mM respectively. Recombinant ApoE (Fitzgerald Industries Int.) was prepared in 700 mM NH4HCO3 at a final concentration of 0.44 mg/mL to prevent monomer assembly and stored as aliquots at −20°. 3.41 μg/mL of purified ApoE was pre-incubated in the presence of 200 μM test compounds, all in triplicate, in 1% BSA/TBS in a 96-well transfer plate for one hour and then added to the Aβ-coated wells for an additional two hours with gentle shaking at 37° to allow ApoE/Aβ association. Plates were washed three times in TBS to remove excess ApoE and incubated first with 0.125 μg/mL mouse monoclonal anti-ApoE antibody (BD Bioscience) for 1 hour, washed and then incubated with 0.26 μg/mL horse-radish peroxidase conjugated goat anti-IgG antibody (Pierce) for 1 hour in 1% BSA/TBS-T (0.05% Tween-20). After washing, wells were incubated with Sure Blue™ TMB-1 peroxidase substrate (KPL) for 30 minutes. The reaction was stopped using 1N HCl. Absorbance values at 450 nm were measured using TECAN plate reader and reflect the amount of ApoE bound to Aβ in the wells. Data were expressed as a percentage of ApoE/Aβ complexes by arbitrarily setting ApoE/Aβ alone at 100%. All compounds were tested at least twice.

HUVEC = assay: Cellular toxicity assay on HUVEC (WST-1 viability); type: cell-based, human; conditions: 24 hours, <75% considered toxic
Protocol: Compound samples in PBS (without Ca^+2, Mg^+2)-glucose 3 mM-HEPES 10 mM—DMSO 1%, as prepared in Example 1, were thawed and left for at least 30 minutes at 20-23° C. before preparation of the following sub-dilutions for the compound toxicity assay: • 100 μL of stock compound solution were added to 900 μL PBSD-1 [diluted 1:10 for a final 1:10 dilution] • 100 μL (1/10 dilution above) were added to 900 μL PBSD-1 [diluted 1:10 for a final 1:100 dilution] Culture of HUVEC
Endothelial cells from human umbilical cord (HUV-EC-C or HUVEC) were purchased form American Type Culture Collection (ATCC, CRL-1730) and cultured according to the manufacturer's protocol. A 1-mL frozen aliquot of sub-cultured cells was thawed in a 37° C. water bath and centrifuged following addition of 5 mL of medium. After re-suspension in 5 mL medium, cells were seeded in a TC80 cm^2 flask pre-coated with 0.1% gelatin. Culture medium was replaced every 3-4 days and cells monitored until confluency was reached.
A sterile stock solution of 0.5 mM of camptothecin (Sigma) was prepared by dissolving a weighed amount of 0.0085 g in 50 mL of double distilled water at 37° C. in a water bath. The solution was vortexed, then filtered through a 0.22-μm filter unit and kept at 4° C. for the duration of the toxicity assays.
From the stock solution, concentrations of 60, 75, 80, 100, 150, 200 and 250 nM of camptothecin were prepared in culture diluent containing 1% DMSO.
HUVEC were cultured for 4 days in gelatin-coated 96-well plates, following seeding with 40 μL/well of a cellular suspension of 1×10^5 cells/mL. Culture media was replaced every 3-4 days of culture until confluency was reached.
On the day of the toxicity assay, the conditioned culture media was removed from the wells and 90 μL of culture medium containing 1% DMSO was distributed in the plate. A volume of 10 μL of the stock solution, 1:10 and 1:100 dilutions of the compounds in PBS-glucose-HEPES-DMSO 1% were added to the appropriate wells (100-μL total volume/well). A volume of 100 μL of camptothecin dilutions and culture medium containing 1% DMSO was also distributed into the plate. Cells were incubated at 37° C. of 24 hours and then 10 μL of the tetrazolium salt WST-1 solution were added to cells and incubated for an extra 90 minutes at 37° C. The absorbance that was associated to the cellular viability was measured at 450nm on the SpectraFluor Tecan reader, and the raw data processed.
The intrinsic cellular toxicity of the compounds was determined for each concentration of every compound on HUVEC. The viability percentage was assessed (OD sample/OD control) ×100% and any value <75% viability was considered toxic. The following table, Table 5, lists the few compounds that presented at least one toxic concentration.

[2] = biological target: T1, L1 transport system (large neutral amino acid carrier, L1-system carrier) (Rattus norvegicus, UniProt Q63016); assay: Competitive binding assay to the brain L1 transport system (L-[U-14C]phenylalanine on rat primary cerebrovascular endothelial cells)
T1 construct: functionality of their endogenous transporters such as the L1-system carrier; endogenous in cells; host or cells: rat primary cerebrovascular (brain microcapillary) endothelial cells, RBEC
Procedure, shortened: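 Cells were primary cerebral microvascular endothelial cells from cortices of 24-day-old rats, isolated by collagenase/DNAse digestion, dextran separation and mesh filtration.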

Aβ40 = Aβ40 (Homo sapiens, UniProt P05067); assay: Electrospray MS assay for binding to Aβ40; conditions: 100 μM compound, 20 μM Aβ40, pH 7.4
Excerpt: The ability of a therapeutic compound of the invention to inhibit an interaction between an amyloidogenic protein and a glycoprotein or proteoglycan constituent of a basement membrane can be assessed by an in vitro binding assay, such as that described in U.S. Pat. No. 5,164,295, the contents of which are hereby incorporated by reference. Alternatively, the ability of a compound to bind to an amyloidogenic protein or to inhibit the binding of a basement membrane constituent (e.g. HSPG) to an amyloidogenic protein (e.g. Aβ) can be measured using a mass spectrometry assay where soluble protein, e.g Aβ, IAPP, β2M is incubated with the compound. A compound which binds to, e.g Aβ, will induce a change in the mass spectrum of the protein. Exemplary protocols for a mass spectrometry assay employing Aβ and IAPP can be found in the Examples, the results of which are provided in Table 5. The protocol can readily be modified to adjust the sensitivity of the data, e.g., by adjusting the amount of protein and/or compound employed. Thus, e.g., binding might be detected for test compounds noted as not having detectable binding employing less sensitive test protocols.
The binding ability between the compounds synthesized in Example 4 and Aβ40 in an aqueous solution is tested. The binding ability is attributed semi-quantitatively from the intensities of peptide-compound complex peaks observed in the Electrospray Mass Spectrum.
In the MS assay for Aβ40, samples are prepared as aqueous solutions adding 20% ethanol if necessary to solubilize in water. The stock solution of the peptide contains 50 μm Aβ40. In a typical experiment, 100 μM of an exemplary compound as prepared in Example 4 and 20 μM of solubilized Aβ40 are used. The ratio of the compound: peptide is 5:1. The pH value of each sample is adjusted to 7.4 (±0.2) by addition of 0.1% aqueous sodium hydroxide. The solutions are then analyzed by electrospray ionization mass spectrometry using a Waters ZQ 4000 mass spectrometer. Samples are introduced by direct infusion at a flow-rate of 25 μL/min within 2 hr. after sample preparation. The source temperature is kept at 70° C. and the cone voltage is 20 V for all the analysis. Data are processed using Masslynx 3.5 software. Aβ 1-40 (M.W.=4329) alone at 20 μM is analyzed at pH 7.32 as a control. Sodium clusters, which are typical of this system at +3 and +4 at m/z […] regions, may be observed. The MS assay gives data on the ability of compounds to bind to soluble Aβ, whereas the ThT, EM and CD assays give data on inhibition of fibrillogenesis.
In Table 7, a blank box means that a value was not determined for that compound in that assay.

T1 sequence (Q63016 whole entry): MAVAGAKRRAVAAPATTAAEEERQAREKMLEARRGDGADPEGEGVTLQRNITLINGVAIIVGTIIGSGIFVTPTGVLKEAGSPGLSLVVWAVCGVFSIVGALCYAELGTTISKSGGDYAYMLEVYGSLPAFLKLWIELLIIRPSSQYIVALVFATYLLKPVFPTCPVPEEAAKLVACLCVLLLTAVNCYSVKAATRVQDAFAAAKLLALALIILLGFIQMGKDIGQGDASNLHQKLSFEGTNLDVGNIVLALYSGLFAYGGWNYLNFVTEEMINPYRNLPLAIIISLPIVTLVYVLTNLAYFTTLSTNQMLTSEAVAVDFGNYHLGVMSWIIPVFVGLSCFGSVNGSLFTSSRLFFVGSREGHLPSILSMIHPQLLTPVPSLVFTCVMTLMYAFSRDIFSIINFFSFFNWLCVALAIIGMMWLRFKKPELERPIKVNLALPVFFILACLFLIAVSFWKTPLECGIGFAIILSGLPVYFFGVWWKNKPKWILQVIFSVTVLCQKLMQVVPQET
T1 sequence (Q794F9 whole entry partner): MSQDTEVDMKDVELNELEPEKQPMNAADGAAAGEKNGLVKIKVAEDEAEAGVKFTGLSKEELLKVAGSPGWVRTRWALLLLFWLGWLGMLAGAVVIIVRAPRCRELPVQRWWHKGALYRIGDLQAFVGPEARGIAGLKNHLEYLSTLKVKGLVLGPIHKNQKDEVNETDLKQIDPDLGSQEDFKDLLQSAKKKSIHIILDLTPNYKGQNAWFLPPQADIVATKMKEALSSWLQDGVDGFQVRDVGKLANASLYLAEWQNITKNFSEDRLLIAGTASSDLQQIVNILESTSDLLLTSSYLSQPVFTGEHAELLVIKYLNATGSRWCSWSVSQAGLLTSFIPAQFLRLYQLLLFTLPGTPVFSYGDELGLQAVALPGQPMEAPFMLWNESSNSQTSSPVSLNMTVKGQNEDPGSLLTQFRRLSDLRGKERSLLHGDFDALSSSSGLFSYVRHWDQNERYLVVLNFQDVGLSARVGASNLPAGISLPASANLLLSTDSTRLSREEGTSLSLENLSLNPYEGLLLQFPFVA
Chain of Aβ40 (P05067 672-711 limits assumed): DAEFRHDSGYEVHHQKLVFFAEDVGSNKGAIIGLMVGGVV

Comparison with the Binding of Phenylalanine ([2]; 10^−4 M)	Comparison with the Binding of Phenylalanine ([2]; 10^−5 M)	Comparison with the Binding of Phenylalanine ([2]; 10^−6 M)	MS Results (Aβ 1-40 binding) (Aβ40)	SMILES	Aβ-ApoE % Complex ([1]; first value of the cell)	Aβ-ApoE % Complex ([1]; second value of the cell)	Viability (%) (HUVEC; 10^−4 M)	Viability (%) (HUVEC; 10^−5 M)	Viability (%) (HUVEC; 10^−6 M)
–	–	–	–	N[C@@H](Cc1cccc(CSc2nnc(-c3ccncc3)o2)c1)C(=O)O [drawing 533]	101%	94%	–	–	–
–	–	–	–	O=C(NC(Cc1cccc(CSc2ncnc3[nH]ncc23)n1)C(=O)O)NC(c1ccccc1)c1ccccc1 (centres unmarked) [Compound 65]	–	–	107%	68%	109%
–	–	–	–	NC(Cc1cccc(CSc2nnnn2-c2ccccc2)c1)C(=O)O (centres unmarked) [drawing 530]	107%	97%	–	–	–
–	–	–	–	N[C@@H](Cc1cccc(CSc2nc3ccccc3[nH]2)n1)C(=O)O [drawing 532]	94%	112%	–	–	–
–	–	–	–	N[C@@H](Cc1cccc(CSc2nnc(-c3ccccc3)[nH]2)c1)C(=O)O [drawing 531]	88%	94%	–	–	–
2 (10 < X < 20 Rank 2)	3 (X > 20 Rank 3)	2 (10 < X < 20 Rank 2)	–	O=C(NC(Cc1cccc(CSc2nnc[nH]2)n1)C(=O)O)NC(c1ccccc1)c1ccccc1 (centres unmarked) [Compound 37]	–	–	94%	50%	87%
–	–	–	–	COc1ccc(-n2nnnc2SCc2cccc(C[C@H](N)C(=O)O)c2)cc1 [drawing 529]	98%	97%	–	–	–
2 (10 < X < 20 Rank 2)	3 (X > 20 Rank 3)	0 (X < 0 Rank 0)	–	O=C(O)C(Cc1cccc(CSc2nnc[nH]2)n1)NS(=O)(=O)c1ccc(F)cc1 (centres unmarked) [Compound 66]	–	–	117%	114%	67%
–	–	–	+ (+ = Weak (25-50% of free peptide))	N[C@@H](Cc1cccc(CSc2nc3ccccc3[nH]2)n1)C(=O)O [drawing 491]	–	–	–	–	–

SMILES	Comparison with the Binding of Phenylalanine ([2]; 10^−4 M)	Comparison with the Binding of Phenylalanine ([2]; 10^−5 M)	Comparison with the Binding of Phenylalanine ([2]; 10^−6 M)	MS Results (Aβ 1-40 binding) (Aβ40)	Aβ-ApoE % Complex ([1]; first value of the cell)	Aβ-ApoE % Complex ([1]; second value of the cell)	Viability (%) (HUVEC; 10^−4 M)	Viability (%) (HUVEC; 10^−5 M)	Viability (%) (HUVEC; 10^−6 M)
NC(Cc1cccc(CSc2nc3ccccc3o2)n1)C(=O)O (centres unmarked) [Compound 30]	1 (0 < X < 10 Rank 1)	2 (10 < X < 20 Rank 2)	3 (X > 20 Rank 3)	–	–	–	110%	112%	8%
